Values joined by “and” are separate entries in the source; they are usually repeats but may differ in a detail not shown here. Equal values may be shown once.
Tests used:
hCA I = biological target: T1, hCA I (Homo sapiens, UniProt P00915); assay: CA inhibition, stopped-flow CO2 hydrase assay; assay type: biochemical; details: stopped-flow technique; incubation time 6 h; mean of 3 assays
T1 construct: made in house
Protocol: (§1) Four hCA isoforms were used in this assay: the cytosolic hCA I and II and the tumor-associated transmembrane hCA IX and XII isoforms. Acetazolamide (AAZ) was used as a standard inhibitor.
(§2) An SX.18MV-R Applied Photophysics (Oxford, UK) stopped-flow instrument has been used to assay the catalytic/inhibition of various CA isozymes. […] Saturated CO2 solutions in water at 25 °C were used as substrate. Stock solutions of inhibitors were prepared at a concentration of 10 μM (in DMSO-water 1:1, v/v) and dilutions up to 0.01 nM were carried out with the assay buffer mentioned above. […] Inhibitor and enzyme solutions were preincubated together for 6 h at room temperature prior to assay in order to allow for the formation of the E-I complex. […] The inhibition constants were obtained by non-linear least-squares methods using the Cheng–Prusoff equation, as reported earlier, and represent the mean from at least three different determinations.

hCA II = biological target: T2, hCA II (Homo sapiens, UniProt P00918); assay: CA inhibition, stopped-flow CO2 hydrase assay; assay type: biochemical; details: stopped-flow technique; incubation time 6 h; mean of 3 assays
T2 construct: made in house
Protocol: as §1, §2

hCA IX = biological target: T3, hCA IX (Homo sapiens, UniProt Q16790); assay: CA inhibition, stopped-flow CO2 hydrase assay; assay type: biochemical; details: stopped-flow technique; incubation time 6 h; mean of 3 assays
T3 construct: made in house
Protocol: as §1, §2

hCA XII = biological target: T4, hCA XII (Homo sapiens, UniProt O43570); assay: CA inhibition, stopped-flow CO2 hydrase assay; assay type: biochemical; details: stopped-flow technique; incubation time 6 h; mean of 3 assays
T4 construct: made in house
Protocol: as §1, §2

K562/DOX cells [1] = assay: Doxorubicin cytotoxicity enhancement assay (MTT); assay type: cell-based, human; details: 72 h
Protocol: K562 is a highly undifferentiated erythroleukemia cell line. The doxorubicin-resistant K562/DOX cells overexpress almost exclusively the transporter membrane protein P-gp.
K562/DOX cells were incubated for 72 h with different concentrations of doxorubicin in combination with 1 or 3 µM of all compounds. […] HT29, A549, HT29/DOX and A549/DOX cells were incubated for 48 h with 5 µM doxorubicin, alone or in combination with 1 or 3 µM of selected compounds. Cell viability of the cell lines was measured by the MTT assay, using a Synergy HT microplate spectrofluorometer (Bio-Tek Instruments, Winooski, VT, USA). The absorbance of untreated cells was considered 100%; results were expressed as a percentage of viable treated cells versus the control untreated cells.

A549/DOX cells [2] = assay: Doxorubicin co-administration assay (MTT); assay type: cell-based, human; details: compound at 3 µM + doxorubicin 5 µM, 48 h
Protocol: (§3) These compounds were then assayed at 1 and 3 µM concentrations in co-administration with doxorubicin at a concentration of 5 µM, which is known to discriminate well between sensitive and resistant cells. […] Moreover, in the A549/DOX cell line, the co-administration of 1, 2, 4–6, 14 and 19, tested at 3 µM, led to the highest enhancement of doxorubicin toxicity reaching a reduction of nearly 55.0% in cell viability.
(§4) K562/DOX cells were incubated for 72 h with different concentrations of doxorubicin in combination with 1 or 3 µM of all compounds. IC50 was the concentration killing 50% of cells and was determined graphically from relative survival curves obtained by GraphPad Prism 5 software (GraphPad, San Diego, CA, USA). HT29, A549, HT29/DOX and A549/DOX cells were incubated for 48 h with 5 µM doxorubicin, alone or in combination with 1 or 3 µM of selected compounds. Cell viability of the cell lines was measured by the MTT assay, using a Synergy HT microplate spectrofluorometer (Bio-Tek Instruments, Winooski, VT, USA). The absorbance of untreated cells was considered 100%; results were expressed as a percentage of viable treated cells versus the control untreated cells.

HT29/DOX cells [3] = assay: Doxorubicin co-administration assay (MTT); assay type: cell-based, human; details: compound at 3 µM + doxorubicin 5 µM, 48 h
Protocol: as §3, §4

A549/DOX cells [4] = assay: Intracellular doxorubicin accumulation; assay type: cell-based, human; details: compound at 3 µM + doxorubicin 5 µM, 24 h, vs doxorubicin alone
Protocol: (§5) Furthermore, we evaluated the intracellular accumulation of 5 µM doxorubicin in HT29/DOX and A549/DOX cells alone and in the presence of derivatives 1, 2, 4–6, 14, 19 and 33, studied at 1 and 3 µM. This test allowed us to investigate if the reduced viability measured in the co-administration assay was due to different retention of the anticancer drug within the cells. In the parental HT29 and A549 cell lines, we measured a greater amount of intracellular doxorubicin compared to their resistant counterparts, which was not enhanced by our selected compounds (Supplementary Materials, Figure S7). However, in HT29/DOX and A549/DOX cells, derivatives 1, 2, 4–6, 14, 19 and 33 were able to increase the intracellular retention of the anticancer drug, in a dose-dependent way. […]
(§6) Intracellular doxorubicin was measured in 10,000 cells seeded into 96-well plates and incubated for 24 h with 5 µM doxorubicin with or without 1 µM and 3 µM of each compound. The intracellular drug content was measured fluorimetrically as detailed previously using a Synergy HTX 96-well plate reader. The results were expressed as nmol doxorubicin/mg cell proteins based on the titration curve previously prepared.

HT29/DOX cells [5] = assay: Intracellular doxorubicin accumulation; assay type: cell-based, human; details: compound at 3 µM + doxorubicin 5 µM, 24 h, vs doxorubicin alone
Protocol: as §5, §6

P-gp = P-gp (Homo sapiens, UniProt P08183); assay: Calcein-AM transport inhibition in MDCK-MDR1 cells; assay type: cell-based; design: expressed in transfected cells; host or cells: MDCK (Madin-Darby Canine Kidney); details: mean ± SEM
Excerpt: The MDR interaction potency of these compounds was studied by detecting the inhibition of the P-gp-, MRP1- or BCRP-mediated efflux of a substrate in cells overexpressing the studied pumps. In detail, we measured the following: (i) the transport inhibition of the profluorescent probe calcein-AM (P-gp and MRP1 substrate) in MDCK-MDR1 and MDCK-MRP1 cells (P-gp- and MRP1-overexpressing cells, respectively); (ii) the transport inhibition of the fluorescent probe Hoechst 33342 (BCRP substrate) in MDCK-BCRP cells (BCRP-overexpressing cells).
Experiments were performed as previously described. MDCK-MDR1 and MDCK-MRP1 cells (30,000 cells per well) were seeded in a 96-well black CulturePlate in 100 µL of medium and allowed to grow overnight in a humidified atmosphere of 5% CO2 at 37 °C. Tested compounds (100 µL) in a final concentration ranging between 0.01 nM and 100 µM, solubilized in culture medium, were added to the monolayers. After 30 min in a humidified atmosphere of 5% CO2 at 37 °C, 100 µL of Calcein-AM in phosphate-buffered saline (PBS) was added to obtain a final concentration of 2.5 µM and the plate was incubated for 30 min. All wells were washed 3 times with 100 µL ice-cold PBS and read with Victor3 (PerkinElmer) after adding 100 µL of cold PBS. Excitation and emission wavelengths of 485 nm and 535 nm, respectively, were used. In these experimental conditions, cell Calcein-AM accumulation in the absence and in the presence of each tested compound was evaluated and compared to the basal level of fluorescence derived from untreated cells. The increase in fluorescence from the baseline level was measured in the treated wells. EC50 values were determined by fitting the rate of fluorescence increase versus log[dose].

K562/DOX cells [6] = assay: Intrinsic cytotoxicity (MTT); assay type: cell-based, human; details: compound alone at 3 µM, 72 h
Protocol: Compounds were first studied at 1 and 3 µM concentrations to evaluate their intrinsic cytotoxicity in both the parental K562 and the resistant K562/DOX cell lines, using the MTT assay. All compounds had no intrinsic cytotoxicity in the parental line.
(§7) The intrinsic toxicity of the studied compounds was determined by an MTT assay. K562 and K562/DOX were exposed for 72 h with compounds at 1 and 3 µM concentrations while HT29, A549, HT29/DOX and A549/DOX cells were incubated for 48 h with compounds used at different concentrations (from 10 nM to 50 µM). The percentage of growth compared to the untreated control was transformed into histograms with the GraphPad Prism 5 program.

A549/DOX cells [7] = assay: Intrinsic cytotoxicity (MTT); assay type: cell-based, human; details: compound alone at 1 µM; A549/DOX; 48 h
Protocol: (§8) All compounds were preliminarily studied to evaluate their intrinsic cytotoxicity at different concentrations (from 10 nM to 50 µM) in the parental HT29 and A549 and the resistant HT29/DOX and A549/DOX cells using the MTT assay.
as §7, with “program. […]” for “program.”

HT29/DOX cells [8] = assay: Intrinsic cytotoxicity (MTT); assay type: cell-based, human; details: compound alone at 1 µM; HT29/DOX; 48 h
Protocol: as §8
as §7, with “program. […]” for “program.”

T1 sequence (P00915 whole entry): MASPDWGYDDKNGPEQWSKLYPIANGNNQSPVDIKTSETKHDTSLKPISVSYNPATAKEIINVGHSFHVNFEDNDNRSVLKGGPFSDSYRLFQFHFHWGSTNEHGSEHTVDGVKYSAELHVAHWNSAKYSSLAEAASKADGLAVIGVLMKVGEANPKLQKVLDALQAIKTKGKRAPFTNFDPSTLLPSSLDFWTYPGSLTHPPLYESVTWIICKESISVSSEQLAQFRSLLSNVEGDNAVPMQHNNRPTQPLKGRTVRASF
T4 sequence (O43570 25-354): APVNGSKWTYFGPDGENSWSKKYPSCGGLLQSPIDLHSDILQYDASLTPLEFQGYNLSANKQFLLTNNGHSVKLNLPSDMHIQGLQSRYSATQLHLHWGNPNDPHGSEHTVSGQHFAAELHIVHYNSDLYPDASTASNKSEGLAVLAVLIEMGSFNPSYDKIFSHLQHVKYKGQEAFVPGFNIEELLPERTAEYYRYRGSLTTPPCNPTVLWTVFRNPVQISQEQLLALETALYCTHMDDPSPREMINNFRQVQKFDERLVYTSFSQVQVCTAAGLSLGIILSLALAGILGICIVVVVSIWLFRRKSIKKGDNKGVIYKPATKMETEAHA
Chain of P-gp (P08183 whole entry): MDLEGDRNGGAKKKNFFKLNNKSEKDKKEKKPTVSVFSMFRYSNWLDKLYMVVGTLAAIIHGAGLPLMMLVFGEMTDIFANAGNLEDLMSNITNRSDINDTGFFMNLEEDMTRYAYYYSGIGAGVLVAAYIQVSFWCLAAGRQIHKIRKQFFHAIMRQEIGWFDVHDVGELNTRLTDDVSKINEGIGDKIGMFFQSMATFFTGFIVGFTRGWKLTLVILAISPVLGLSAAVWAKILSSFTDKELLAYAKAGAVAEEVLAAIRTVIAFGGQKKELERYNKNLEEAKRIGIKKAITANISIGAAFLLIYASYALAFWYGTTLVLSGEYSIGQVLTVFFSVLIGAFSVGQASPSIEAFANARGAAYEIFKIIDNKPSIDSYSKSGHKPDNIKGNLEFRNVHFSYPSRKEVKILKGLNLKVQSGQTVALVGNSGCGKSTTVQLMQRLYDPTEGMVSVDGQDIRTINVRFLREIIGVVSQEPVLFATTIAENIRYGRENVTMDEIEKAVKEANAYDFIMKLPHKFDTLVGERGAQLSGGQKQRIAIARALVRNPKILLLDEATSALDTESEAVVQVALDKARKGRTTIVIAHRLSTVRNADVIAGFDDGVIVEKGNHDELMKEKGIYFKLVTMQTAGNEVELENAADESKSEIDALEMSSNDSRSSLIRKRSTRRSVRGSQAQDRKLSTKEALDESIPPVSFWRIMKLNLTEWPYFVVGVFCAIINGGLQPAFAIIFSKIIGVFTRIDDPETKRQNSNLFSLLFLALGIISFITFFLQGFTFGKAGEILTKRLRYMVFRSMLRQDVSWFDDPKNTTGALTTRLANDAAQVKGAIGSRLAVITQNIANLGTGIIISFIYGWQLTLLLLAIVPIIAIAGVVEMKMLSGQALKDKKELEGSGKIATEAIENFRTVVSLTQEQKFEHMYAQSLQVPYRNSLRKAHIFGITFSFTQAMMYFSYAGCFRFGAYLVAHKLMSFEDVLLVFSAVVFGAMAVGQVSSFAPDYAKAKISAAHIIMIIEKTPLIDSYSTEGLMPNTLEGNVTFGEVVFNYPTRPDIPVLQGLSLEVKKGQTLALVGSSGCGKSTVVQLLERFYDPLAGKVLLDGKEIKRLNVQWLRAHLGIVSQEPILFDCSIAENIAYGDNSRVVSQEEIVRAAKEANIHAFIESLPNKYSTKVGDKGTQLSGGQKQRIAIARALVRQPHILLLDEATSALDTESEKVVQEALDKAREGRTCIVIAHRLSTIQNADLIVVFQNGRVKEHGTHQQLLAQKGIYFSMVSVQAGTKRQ

Row | Compound | Ki (hCA I) | Ki (hCA II) | Ki (hCA IX) | Ki (hCA XII) | RF (Reversal Fold: IC50 of doxorubicin alone / in presence of modulator) (K562/DOX cells [1]; compound at 1 µM) | RF (Reversal Fold: IC50 of doxorubicin alone / in presence of modulator) (K562/DOX cells [1]; compound at 3 µM) | reduction in cell viability (A549/DOX cells [2]) | reduction in cell viability (HT29/DOX cells [3]) | greater accumulation of doxorubicin (A549/DOX cells [4]) | greater accumulation of doxorubicin (HT29/DOX cells [5]) | EC50 (P-gp) | reduction of cellular viability (K562/DOX cells [6]) | toxicity (A549/DOX cells [7]) | toxicity (HT29/DOX cells [8])
1 | COc1cc(CN2CCN(CCOc3ccc4oc(=O)ccc4c3)CC2)cc(OC)c1OC [Compound 19, 6-(2-(4-(3,4,5-Trimethoxybenzyl)piperazin-1-yl)ethoxy)-2H-chromen-2-one] | > 10000 nM | > 10000 nM | 84.7 nM | 5.8 nM | 1.4 | 2.2 | ~55.0% | 65.0% |  |  |  |  |  | 
2 | COc1ccc(C(CCCN2CCN(CCCCOc3ccc4oc(=O)ccc4c3)CC2)c2ccc(OC)cc2)cc1 [Compound 33, 6-(4-(4-(4,4-Bis(4-methoxyphenyl)butyl)piperazin-1-yl)butoxy)-2H-chromen-2-one] | > 10000 nM | > 10000 nM | 74.6 nM | 46.8 nM | 9.9 |  | 62.6% | 67.6% | 4 fold | 3 fold | 3020 ± 90 nM |  |  | 
3 | COc1ccc(C(CCCN2CCN(CCOc3ccc4ccc(=O)oc4c3)CC2)c2ccc(OC)cc2)cc1 [Compound 25, 7-(2-(4-(4,4-Bis(4-methoxyphenyl)butyl)piperazin-1-yl)ethoxy)-2H-chromen-2-one] | > 10000 nM | > 10000 nM | 113 nM | 84.7 nM | 5.9 |  |  |  |  |  |  | 30–50% | ≥ 35% | ≥ 35%
4 | COc1cc(/C=C/CN2CCN(CCOc3ccc4oc(=O)ccc4c3)CC2)cc(OC)c1OC [Compound 7, (E)-6-(2-(4-(3-(3,4,5-Trimethoxyphenyl)allyl)piperazin-1-yl)ethoxy)-2H-chromen-2-one] | > 10000 nM | > 10000 nM | 51 nM | 29.5 nM | 1 and 1.1 | 1 |  |  |  |  |  | 30–50% |  | 
5 | COc1cc(/C=C/CN2CCN(CCCCOc3ccc4oc(=O)ccc4c3)CC2)cc(OC)c1OC [Compound 9, (E)-6-(4-(4-(3-(3,4,5-Trimethoxyphenyl)allyl)piperazin-1-yl)butoxy)-2H-chromen-2-one] | > 10000 nM | > 10000 nM | 22.1 nM | 7.3 nM | 2.5 | 1.3 |  |  |  |  |  | 30–50% |  | 

Now from value to compound, other results behind:

Row | Ki (hCA I) | Ki (hCA II) | Ki (hCA IX) | Ki (hCA XII) | Compound | RF (Reversal Fold: IC50 of doxorubicin alone / in presence of modulator) (K562/DOX cells [1]; compound at 1 µM) | RF (Reversal Fold: IC50 of doxorubicin alone / in presence of modulator) (K562/DOX cells [1]; compound at 3 µM) | reduction in cell viability (A549/DOX cells [2]) | reduction in cell viability (HT29/DOX cells [3]) | greater accumulation of doxorubicin (A549/DOX cells [4]) | greater accumulation of doxorubicin (HT29/DOX cells [5]) | EC50 (P-gp) | reduction of cellular viability (K562/DOX cells [6]) | toxicity (A549/DOX cells [7]) | toxicity (HT29/DOX cells [8])
6 | > 10000 nM | > 10000 nM | 51.3 nM | 13 nM | COc1cc(/C=C/CN2CCN(CCOc3ccc4ccc(=O)oc4c3)CC2)cc(OC)c1OC [Compound 1, (E)-7-(2-(4-(3-(3,4,5-Trimethoxyphenyl)allyl)piperazin-1-yl)ethoxy)-2H-chromen-2-one] | 1.6 | 2.3 | ~55.0% |  |  |  |  |  |  | 
7 | > 10000 nM | > 10000 nM | 40.1 nM | 13.6 nM | COc1cc(CN2CCN(CCCOc3ccc4ccc(=O)oc4c3)CC2)cc(OC)c1OC [Compound 14, 7-(3-(4-(3,4,5-Trimethoxybenzyl)piperazin-1-yl)propoxy)-2H-chromen-2-one] | 1.0 | 3.4 | ~55.0% | 65.0% |  |  |  |  |  | 
